# Assay results reported in patent US12606795B2 (Thankcome Biological Science and Technology (SuZhou) Co., …, priority 2023, dated 2026).
# Legend:
# [1] = test system: AOM/DSS-induced colorectal carcinoma mice; test: AOM/DSS-induced colorectal carcinoma mice; type: in vivo, C57BL/6 mice; conditions: for colorectum weight/length (ratio): model group 4.34±0.35, normal 2.81±0.34
# Procedure: 6-week-old SPF male C57BL/6 mice, purchased from the Chongqing Lepitt Biotechnology Co., Ltd. The mice were raised in a standardized laboratory with room temperature of 25° C.±2° C., relative humidity of 50%±5%, and 12 h of light/12 h of darkness. […] In experiments, mice were given free feeding and water. On the first day of experimental molding, the mice in the model group, the aspirin group, and the AKKP group were injected intraperitoneally with AOM at a dosage of 10 mg/kg, and were fed with 2.5% DSS aqueous solution at weeks 2, 5, and 8. The mice in the normal group and model group were intragastrically administrated with sterile saline; the mice in the aspirin group were intragastrically administrated with an aspirin solution at 67 mg/kg, and the mice in the AKKPL group and the AKKPH group were intragastrically administrated at dosages of 1×10^8 CFU/kg and 1×10^9 CFU/kg, respectively, for 10 consecutive weeks. In the experiments, diet, activity, vigor and hair conditions, and fecal properties of the mice in each group were observed. Each mouse was weighed per week and the body weights were recorded. After the experiments, blood was collected from eyeballs and the mice were sacrificed by removing their vertebrae. The mice were dissected to take out large intestine tissue, spleen tissue, liver tissue, and the kidney tissue for later testing.
# After the mice were dissected, the large intestine tissue, the spleen tissue, the liver tissue, and the kidney tissue were taken out and weighed. An organ Index was calculated using a formula, while the colorectum length of the mouse was measured and the colorectal tumorigenesis number of the mouse was recorded. Organ index=organ weight (mg)/mouse body weight (g).
# After being fixed in a tissue fixative for 24 h, the rectum of the mouse was transferred into 95% ethanol for dehydration, and then the dehydrated rectum was placed in xylene to replace alcohol in the tissue to make the rectum tissue transparent. Then, the treated rectum was embedded with paraffin. The embedded rectum was sectioned by a microtome, and then a tissue section was stained with H&E and fixed, obtaining a pathologic tissue section, with a thickness of 2 to 3 μm, of the rectum of the mouse, and the pathologic tissue section was observed under the upright microscope.
# Whole blood was collected from the eyeballs, and centrifuged at 4000 r/min and 4° C. for 10 min to separate supernatant serum. According to the instruction of the ELISA kit, the levels of IL-1β, IL-6, IFN-γ, iNOS and NF-κB in the serum of the mouse were determined.
# About 50 mg colon tissue was taken and cleaned with saline, and the cleaned colon tissue was placed in a homogenization tube containing 6 zirconia beads, and 500 μL TRIzol™ reagent was added to extract RNA in the tissue. The purity and concentration of RNA were determined using the micro-spectrophotometer. […] Then, after cDNA was generated by reverse transcription, a reaction system containing 1 μL cDNA was prepared. Other reagents include 10 μL qPCR SYBR Green Master Mix, […] sterile distilled water, 1 μL forward primer and 1 μL reverse primer. qRT-PCR amplification reaction conditions: 95° C., 10 s, 60° C., 30 s, 40 cycles; 95° C., 15 s, 60° C., 60 s, 95° C., 15 s. Taking Eef2 as an internal reference gene, the mRNA relative expression of each target gene was calculated according to formula 2^−ΔΔCt.
# [2] = test system: gouty arthritis mouse model; test: Gouty arthritis mouse model (sodium urate); type: in vivo, BALB/c mice; conditions: for SOD in mouse ankle joint tissue: model group 1.07, normal 6.07; for MPO in mouse ankle joint tissue: model group 2.49, normal 0.38; for GSH in mouse ankle joint tissue: model group 18.06, normal 47.05; for IL-1β in serum of mice: model group 24.97, normal 12.66; for MDA in mouse ankle joint tissue: model group 26.69, normal 5.74; for IL-10 in serum of mice: model group 36.03, normal 27.20; for IL-6 in serum of mice: model group 90.05, normal 52.97; for TNF-α in serum of mice: model group 249.41, normal 117.58
# Procedure: Mice were randomly divided into 5 groups: a normal group, a model group, a glucosamine sulfate (positive control) group, an Akk low-concentration experimental (Akk-L) group, and an Akk high-concentration experimental (Akk-H) group, with 10 mice in each group. The mice in the normal group and the mice in the model group were intragastrically administered with distilled water at a dosage of 0.1 mL/10 g. bw per day. The mice in the glucosamine sulfate group were intragastrically administered with glucosamine sulfate at a dosage of 195 mg/kg. bw. The mice in the Akk-L group and the mice in the Akk-H group were intragastrically administered with Akk experimental bacteria at a dosage of 10^8 CFU/kg. bw and 10^9 CFU/kg. bw, respectively, for 7 consecutive days. Then, all experimental mice were anesthetized with isoflurane, and then 50 μL of PBS solution was injected into the tibiotarsal joint (ankle joint) of the right paw of the mouse in the normal group. 50 mg of sodium urate was added to 1 mL of PBS buffer to prepare a suspension. 50 μL of suspension was injected into the tibiotarsal joints (ankle joint) of the right paws of the rest of the mice except the mice in the […] to induce gouty arthritis. After the mice woke up, they were intragastrically administrated with a corresponding sample for 7 d still at the dosage of the sample intragastrically administrated in the previous 7 days.
# 0.1 g of mouse ankle joint tissue was weighed and added into […] containing 0.9 mL of saline and mixing was performed. Subsequently, mixed tissue samples were centrifuged at a speed of 4000 rpm for 10 min to obtain liquid supernatant. Next, related indicators in the liquid supernatant of a tissue homogenate was determined using assay kits for MPO, SOD, GSH, and MDA.
# A taken-out whole blood sample of the mouse was centrifuged at 4° C. at 4000 rpm for 10 min to obtain supernatant serum. Serum-related inflammatory indicators were determined using the ELISA kit for IL-6, IL-10, IL-1β, and TNF-α.
# [3] = qRT-PCR, aspirin 67 mg/kg or AKKPH 1×10^9 CFU/kg, vs model group, P<0.05
# [4] = qRT-PCR, vs model group, P<0.05
# [5] = Akk-H 10^9 CFU/kg. bw intragastric
# [6] = Akk-L 10^8 CFU/kg. bw intragastric
substance,measurement,setting,value
Akkermansia muciniphila [AKK PROBIO],colorectum weight/length (ratio),[1]; AKKPH 1×10^9 CFU/kg intragastric 10 weeks,2.97±0.18
same,colorectum weight/length (ratio),[1]; AKKPL 1×10^8 CFU/kg intragastric 10 weeks,3.18±0.31
same,body weight loss,"[1]; AOM/DSS mice, intragastric 10 weeks, aspirin 67 mg/kg, AKKP 1×10^8 and 1×10^9 CFU/kg",alleviate the body weight loss in the mice to a certain extent
same,content of IL-6 in serum,"[1]; ELISA, vs model group",reduced
same,content of IFN-γ in serum,"[1]; ELISA, vs model group, P<0.05",reduced
same,content of IL-1β in serum,"[1]; ELISA, vs model group, P<0.05",lower than that in the model group
same,content of NF-κB in serum,"[1]; ELISA, vs model group, P<0.05",reduced
same,content of iNOS in serum,"[1]; ELISA, vs model group, P<0.05",reduced
same,pathological morphology of rectum tissue (H&E),"[1]; aspirin, AKKPL and AKKPH groups",no obvious erosion found in the rectal mucosa
same,kidney index / renal tissue,"[1]; between the five groups, P>0.05",no significant difference
same,mRNA relative expression of IκBβ in colon tissue,[1]; [3],significantly reduced
same,mRNA relative expression of p50 in colon tissue,[1]; [3],significantly reduced
same,mRNA relative expression of Bid in colon tissue,[1]; [4],significantly increased
same,mRNA relative expression of Bim in colon tissue,[1]; [4],significantly increased
same,mRNA relative expression of caspase-9 in colon tissue,[1]; [4],significantly increased
same,mRNA relative expression of p52 in colon tissue,[1]; [4],significantly reduced
same,mRNA relative expression of p65 in colon tissue,[1]; [4],significantly reduced
same,colorectal tumorigenesis number,"[1]; vs model group, P<0.05",significantly smaller
same,liver weight (liver index),"[1]; vs model group, P<0.05",reduced
same,spleen weight (spleen index),"[1]; vs model group, P<0.05",reduced
same,colorectum length,"[1]; vs model group, P<0.05, aspirin 67 mg/kg, AKKP 1×10^8 and 1×10^9 CFU/kg, 10 weeks",relatively long
same,SOD in mouse ankle joint tissue,[2]; [5],4.70 ± 0.16 U/mg
same,MPO in mouse ankle joint tissue,[2]; [5],0.77 ± 0.06 U/g
same,GSH in mouse ankle joint tissue,[2]; [5],39.28 ± 2.39 mg/g
same,IL-1β in serum of mice,[2]; [5],18.48 ± 1.34 ng/mL
same,MDA in mouse ankle joint tissue,[2]; [5],12.97 ± 1.20 nmol/mg
same,IL-10 in serum of mice,[2]; [5],28.72 ± 1.35 ng/mL
same,IL-6 in serum of mice,[2]; [5],58.83 ± 2.60 ng/mL
same,TNF-α in serum of mice,[2]; [5],148.87 ± 9.60 ng/mL
same,SOD in mouse ankle joint tissue,[2]; [6],2.31 ± 0.43 U/mg
same,MPO in mouse ankle joint tissue,[2]; [6],1.97 ± 0.19 U/g
same,GSH in mouse ankle joint tissue,[2]; [6],29.89 ± 2.63 mg/g
same,IL-1β in serum of mice,[2]; [6],21.83 ± 1.72 ng/mL
same,MDA in mouse ankle joint tissue,[2]; [6],20.93 ± 1.30 nmol/mg
same,IL-10 in serum of mice,[2]; [6],34.17 ± 2.18 ng/mL
same,IL-6 in serum of mice,[2]; [6],71.59 ± 5.46 ng/mL
same,TNF-α in serum of mice,[2]; [6],211.76 ± 10.58 ng/mL
